Like-named read-outs stand apart in the source and are kept apart here.
How the values were obtained:
MiaPaCa-2 = assay: Proliferation assay (CellTiter Glo), MiaPaCa-2; format: cell-based; details: for Top inhibition %: 96 hours
Method: (§1) Briefly, cells at a density of 1,000-10,000 cells/well were seeded in 96-well plates and incubated at 37′C for 24 hours. A series of 9 different concentrations of compound stocks (500×) were created by 3-fold serial dilution in DMSO. These compounds were further diluted in culture media and then added to cells so that the final DMSO concentration was 0.2%. After 96 hours of incubation, 50 μL of CellTiter Glo reagent (Promega) was added to each well and luminescence was measured after 10 minutes using EnVision (PerkinElmer). […] The dose range for most compounds was 4.6 nM-30 μM. The dose ranges for some compounds were adjusted downward to 0.46 nM-3 μM or 0.08 nM-0.5 μM or 0.03 nM-0.2 μM. Luminescence from cells treated with […] alone was set as Max and % of inhibition was calculated as follows: Inhibition %=(Max-Sample value)/Max*100. Data was analyzed using XL-fit software (ID Business Solutions Ltd.) and EC50, relative EC50, and % of top inhibition were calculated.

AsPC-1 = assay: Proliferation assay (CellTiter Glo), AsPC-1; format: cell-based; details: for Top inhibition %: 96 hours
Method: as §1, with “calculated. The results are shown in Tables 3-6 for pancreatic cancer, lung cancer, colon/gastric cancer, and leukemia cell lines.” for “calculated.”

Panc2.13 = assay: Proliferation assay (CellTiter Glo), Panc2.13; format: cell-based; details: for Top inhibition %: 96 hours
Method: as §1, with “calculated. The results are shown in Tables 3-6 for pancreatic cancer, lung cancer, colon/gastric cancer, and leukemia cell lines.” for “calculated.”

A549 = assay: Proliferation assay (CellTiter Glo), A549; format: cell-based; details: for Top inhibition %: 96 hours
Method: as §1, with “calculated. The results are shown in Tables 3-6 for pancreatic cancer, lung cancer, colon/gastric cancer, and leukemia cell lines.” for “calculated.”

H358 = assay: Proliferation assay (CellTiter Glo), H358; format: cell-based; details: for Top inhibition %: 96 hours
Method: as §1, with “calculated. The results are shown in Tables 3-6 for pancreatic cancer, lung cancer, colon/gastric cancer, and leukemia cell lines.” for “calculated.”

HCT116 = assay: Proliferation assay (CellTiter Glo), HCT116; format: cell-based; details: for Top inhibition %: 96 hours
Method: as §1, with “calculated. The results are shown in Tables 3-6 for pancreatic cancer, lung cancer, colon/gastric cancer, and leukemia cell lines.” for “calculated.”

AGS = assay: Proliferation assay (CellTiter Glo), AGS; format: cell-based; details: for Top inhibition %: 96 hours
Method: as §1, with “calculated. The results are shown in Tables 3-6 for pancreatic cancer, lung cancer, colon/gastric cancer, and leukemia cell lines.” for “calculated.”

THP1 = assay: Proliferation assay (CellTiter Glo), THP1; format: cell-based; details: for Top inhibition %: 96 hours
Method: as §1, with “calculated. The results are shown in Tables 3-6 for pancreatic cancer, lung cancer, colon/gastric cancer, and leukemia cell lines.” for “calculated.”

SW900 = assay: Proliferation assay (CellTiter Glo), SW900; format: cell-based; details: SW900 (K-ras: G12V)
Method: as §1
(§2) Other cancer cell lines having wild-type K-ras status and K-ras mutation at G12 were also screened using the PKC activator compounds. […] K-104 was tested in a range of 0.03 nM-0.2 μM. […] The dose ranges were adjusted downward to 0.46 nM-3 μM for K-102 and 0.08 nM-0.5 μM for K-103 for some cell lines.

H1915 = assay: Proliferation assay (CellTiter Glo), H1915; format: cell-based; details: H1915 (WT K-ras)
Method: as §1, §2

HT29 = assay: Proliferation assay (CellTiter Glo), HT29; format: cell-based; details: HT29 (WT K-ras)
Method: as §1, §2

Colo205 = assay: Proliferation assay (CellTiter Glo), Colo205; format: cell-based; details: Colo205 (WT K-ras)
Method: as §1, §2

RPMI8226 = assay: Proliferation assay (CellTiter Glo), RPMI8226; format: cell-based; details: RPMI8226 (K-ras: G12A)
Method: as §1, §2

[1] = system: leukemia inhibitory factor (LIF); assay: Western blot of LIF in A549 cells; format: cell-based; details: for protein levels of the leukemia inhibitory factor (LIF): Western blot, concentrations of Table 8, 48 hours
Method: Cancer cells (2-8 million cells) were seeded in 10 cm dishes and grown overnight. For A549 lung cancer cell line, about 3 million cells were seeded. Cells were then treated with different drugs at indicated concentrations (see Table 8) for a period of time up to 48 hours. Cells were lysed in 0.3-0.5 mL of RIPA buffer (Sigma) supplemented with protease inhibitors (Roche) and phosphatase inhibitors (Sigma). Lysates were assayed for protein concentration using BCA kit (Pierce). Normalized amount of lysates (20-30 μg protein/lane) were run on 4-12% NuPage gel (Life Technologies) and the proteins were transferred to the PVDF or nitrocellulose membrane using iBlot® Transfer Stack (Life Technologies). The membranes were probed with primary antibodies shown in Table 8 at 4° C. overnight after blocking with 1×TBST containing 5% non-fat milk. Antibodies from other vendors could also be used in Western blot analysis. After washing 5 times with 1×TBS containing 0.1% Tween20, the membranes were probed with 2nd antibodies Anti-mouse IgG Dylight 800 conjugate or Anti-rabbit IgG DyLight 680 conjugate (1:10000; Cell signaling or similar IR 2nd antibodies from different vendors) at room temperature for one hour. After washing 5 times, the membranes were scanned using Odyssey® Imaging System (Licor Biosciences).

[2] = system: PKCμ and PKCδ in HFL-1 cells; assay: Activation of PKC isoforms in non-cancerous lung fibroblast HFL-1 cells; format: cell-based, human; details: 30 minutes
[3] = system: PKCδ, PKCμ, c-Raf in xMiaPaCa-2, MiaPaCa-2, Panc6.03, Panc1; assay: Activation of PKC isoforms in pancreatic cancer cell lines, Western blot; format: cell-based
[4] = system: PKCδ, PKCμ, c-Raf in MH22A; assay: Activation of PKC isoforms in hepatoma cell line MH22A, Western blot; format: cell-based, mouse
lymphoma cell lines = assay: Proliferation assay, 9 lymphoma cell lines; format: cell-based; details: for IC50: among the sensitive lymphoma cell lines, read-out: IC50 ranges
Method: PKC activators were tested in 9 lymphoma cell lines (Table 10). Proliferation assays were performed as described in Example 1.

[5] = absolute EC50, 96 hours, read-out: Ab EC50
[6] = relative EC50, 96 hours, read-out: Re EC50
[7] = Homo sapiens, absolute EC50, 96 hours, read-out: Ab EC50
[8] = Homo sapiens, relative EC50, 96 hours, read-out: Re EC50
[9] = 9 lymphoma cell lines of Table 10

SMILES | Top inhibition % (MiaPaCa-2) | Top inhibition % (AsPC-1) | Top inhibition % (Panc2.13) | EC50 (Panc2.13; [5]) | EC50 (Panc2.13; [6]) | Top inhibition % (A549) | Top inhibition % (H358) | Top inhibition % (HCT116) | Top inhibition % (AGS) | Top inhibition % (THP1) | Top inhibition % (SW900) | Top inhibition % (H1915) | Top inhibition % (HT29) | Top inhibition % (Colo205) | Top inhibition % (RPMI8226) | protein levels of the leukemia inhibitory factor (LIF) [1] | phosphorylation of PKCμ at Ser916 and Ser744/748, and PKCδ at Thr505 and Tyr311 [2] | sensitivity of lymphoma cell lines (lymphoma cell lines; [9]) | sensitivity of lymphoma cell lines (lymphoma cell lines; Daudi and Raji) | IC50 (lymphoma cell lines) | further results
CC(=O)O[C@@]12C[C@@H](C)[C@]3(O)C4C=C(C)C(=O)[C@@]4(O)CC(CO)=C[C@H]3[C@@H]1C2(C)C (some centres unmarked) [Compound K-101A, Prostratin] | 74.4% | 32.4% | 43.4% | > 30000 nM | 17 nM | 76.0% | 56.4% | 17.4% | 21.7% | 51.8% | 7.1% | 27.7% | 12.8% | 83.6% | 32.39% | dose-dependent reduction | resulted in phosphorylation | Seven lymphoma cell lines were very sensitive | not sensitive | 77 to 284 nM | EC50 (MiaPaCa-2; Homo sapiens, MIA PaCa-2, absolute EC50, 96 hours, read-out: Ab EC50): 300 nM; EC50 (MiaPaCa-2; Homo sapiens, MIA PaCa-2, relative EC50, 96 hours, read-out: Re EC50): 180 nM; EC50 (AsPC-1; Homo sapiens, ASPC1, absolute EC50, 96 hours, read-out: Ab EC50): > 30000 nM; EC50 (AsPC-1; Homo sapiens, ASPC1, relative EC50, 96 hours, read-out: Re EC50): 270 nM; EC50 (A549; [7]): 490 nM; EC50 (A549; [8]): 270 nM; EC50 (H358; Homo sapiens, NCI-H358, absolute EC50, 96 hours, read-out: Ab EC50): 4900 nM; EC50 (H358; Homo sapiens, NCI-H358, relative EC50, 96 hours, read-out: Re EC50): 160 nM; EC50 (HCT116; Homo sapiens, HCT-116, absolute EC50, 96 hours, read-out: Ab EC50): > 30000 nM; EC50 (AGS; [7]): > 30000 nM; EC50 (AGS; [8]): 490 nM; EC50 (THP1; Homo sapiens, THP-1, absolute EC50, 96 hours, read-out: Ab EC50): 870 nM; EC50 (THP1; Homo sapiens, THP-1, relative EC50, 96 hours, read-out: Re EC50): 300 nM; LIF protein level ([1]; 0.5 uM of K-101A): lowered; phosphorylation of c-Raf at Ser338 [3]: induced phosphorylation; phosphorylations of PKCδ at Thr505 and PKCμ at Ser744/748 [3]: increased; phosphorylation of PKCδ at Thr505, PKCμ at Ser744/748, PKCμ at Ser916, c-Raf at Ser338 [4]: did not induce further phosphorylation
CC(=O)OCC1=C[C@H]2[C@@H]3C(C)(C)[C@]3(OC(C)=O)C[C@@H](C)[C@]2(O)C2C=C(C)C(=O)[C@@]2(O)C1 (some centres unmarked) [Compound K-101E] | 61.4% | 35.2% | 49.8% | > 30000 nM | 44 nM | 78.7% | 47.9% | 27.4% | 25.9% | 51.6% | 25.4% | 35.6% | 31.7% | 85.8% | 32.25% | did not affect | – | – | – | – | EC50 (MiaPaCa-2; [5]): 1880 nM; EC50 (MiaPaCa-2; [6]): 860 nM; EC50 (AsPC-1; [5]): > 30000 nM; EC50 (AsPC-1; [6]): 2780 nM; EC50 (A549; [5]): 2640 nM; EC50 (A549; [6]): 1560 nM; EC50 (H358; [5]): > 30000 nM; EC50 (H358; [6]): 1250 nM; EC50 (HCT116; [5]): > 30000 nM; EC50 (HCT116; [6]): 6640 nM; EC50 (AGS; [5]): > 30000 nM; EC50 (AGS; [6]): 4380 nM; EC50 (THP1; [5]): 3600 nM; EC50 (THP1; [6]): 1020 nM
C/C=C(/C)C(=O)O[C@H]1C(C)=C[C@]23C(=O)[C@@H](C=C(CO)[C@@H](O)[C@]12O)[C@H]1[C@@H](C[C@H]3C)C1(C)C [Compound K-102, Ingenol-3-angelate, reference compound] | – | – | – | – | – | – | – | – | – | – | – | – | – | – | – | – | resulted in phosphorylation | Seven lymphoma cell lines were very sensitive | not sensitive | 0.8 to 5 nM | phosphorylations of PKCδ at Thr505 and PKCμ at Ser744/748 ([3]; all four pancreatic cell lines, K101A 1 μM, K102 0.1 μM): increased; phosphorylation of c-Raf at Ser338 ([3]; pancreatic cell lines, K101A 1 μM, K102 0.1 μM): induced phosphorylation; phosphorylation of PKCδ at Thr505, PKCμ at Ser744/748, PKCμ at Ser916, c-Raf at Ser338 ([4]; MH22A, basal levels high, K101A 1 μM, K102 0.1 μM): did not induce further phosphorylation

— patent US12502369B2, “Methods of cancer treatment” (K-GEN, INC., priority 2015, dated 2025)
